This note sets out measurements from patent publication US20240261274A1, “TREATMENT OF MYC-DRIVEN CANCERS WITH GSPT1 DEGRADERS” (MONTE ROSA THERAPEUTICS, INC., priority 2021, published 2024).

Assay [1] relates to MM1 S multiple myeloma cell line derived xenograft. The assay can be described thus: MM1 S multiple myeloma CDX efficacy study. The class given is in vivo, immunodeficient mice. The settings on record: oral daily 1, 3 and 10 mg/kg. Here is the method:
Cell line derived xenograft (CDX) models were produced for the MM1 S multiple myeloma (MM) cell line in immunodeficient mice. Oral dosing of Compound 345 was performed daily at doses of 1 mg/kg, 3 mg/kg, and 10 mg/kg as well as lenalidomide at 50 mg/kg and a no-drug vehicle control. Tumor volumes were measured (mm^3) at regular intervals over the course of 20 to 50 days depending on the animal.
In vivo efficacy study: NCI-H1155, MM1 S, WSU-DLCL2, DOHH-2 cells were maintained in vitro in individual medium and conditions as recommended by the providers and incubated at 37° C. in an atmosphere of 5% CO2 in air. 0.5 million (NCI-H1155), 10 million (MM1S) or 5 million (WSU-DLCL2 and DOHH-2) cells were resuspended in typically 0.1-0.2 mL of PBS with Matrigel (50:50) and were inoculated into 6-8 weeks old BALB/c nude female (NCI-H115, WSU-DLCL2), NOD/SCID (MM1S) or CB-17SCID (DOHH-2) mice and allowed to grow to 150-200 mm3 in size. Mice were dosed orally (PO) and daily (QD) with either vehicle or Compound 345 typically at 1.0 mg/kg, 3.0 mg/kg and 10 mg/kg. […] Tumor volumes were measured at least twice weekly during the treatment period using a caliper and the volume was expressed in mm3 using the formula: V=0.5 a×b2 where a and b were the long and short diameters of the tumor, respectively. […] Data are expressed as the mean±SEM. All data was analyzed using GraphPad Prism 8.1.2 (GraphPad).

In another assay the target is GSPT1 (Homo sapiens, UniProt P15170+Q96SW2). Nature of the assay: GSPT1 degradation by Compound 345 in cancer cell lines (western blot). It is filed as cell-based. Also on record: endogenous in cells; host or cells: MM1 S (ATCC CRL-2974). Here is the method:
NCI-H1155 and ABC-1 were taken as representative of N-Myc positive NSCLC. NCI-H2023 and NCI-H441 as of N-Myc low representatives. 10A: western blotting analysis performed after 6 (NCI-H1155 and ABC-1) or 24 hr (NCI-H2023 and NCI-H441) posttreatment. […] 10B: corresponding densitometry analyses of GSPT1 normalized to GAPDH. DC50 and Dmax as indicated.
NCI-H1155 and ABC-1 were taken as representative of N-Myc high NSCLC. NCI-H2023 and NCI-H441 as of N-Myc low representatives. Left: densitometry analysis of GSPT1 normalized to GAPDH from western blotting following treatment with Compound 345 (as indicated). Right: 72 hr viability assay following treatment with Compound 345 as assessed by Cell Titer Glo. For both the GSPT1 expression plot and the cell viability plot, two Myc-driven cancer cell lines are represented by upright triangles and diamonds. Two non-Myc-driven cancer cell lines are represented by upside down triangles and circles.
NCI-H1155 and NCI-H2023 were taken as representative of N-Myc high and low NSCLC. 12A: western blot analysis probing for GSPT1 and N-Myc following treatment with Compound 345 (as indicated). Tubulin was used as a loading control. N-Myc could not be detected by western blotting in the NCI-H2023 line. 12B: Single-sample gene set enrichment analysis (ssGSEA) results for a Myc target gene set at 6 hours (left) and 24 hours (right) after treatment. ssGSEA scores were normalized to DMSOs for each cell line and averaged for three replicates. Error bars denote+/−1 s.d. across replicates.
NCI-H1836 and NCI-H1876 were taken as two representatives of L-Myc high SCLC. Western blot analysis probing for GSPT1 and L-Myc following treatment with Compound 345 as indicated. GAPDH was used as a loading control.
FIGS. 16A, 16B and 16C: Activity of Compound 345 in the c-Myc high multiple myeloma MM1S cell line. […] GAPDH was used as a loading control. […] Lenalidomide was used as a benchmark. 16C: Antiproliferative activity of Compound 345 (as indicated) following treatment with Compound 345 for 72 hr as assessed by Cell Titer Glo assay.
FIGS. 18A, 18B and 18C: Activity of Compound 345 in the c-Myc high WSU-DLCL2 lymphoma cell line. […] GAPDH was used as a loading control. 18B: Antiproliferative activity of Compound 345 (as indicated) following treatment with Compound 345 for 72 hr as assessed by Cell Titer Glo assay. […] Mice were dosed daily PO with vehicle or Compound 345 at 3, 10 mg/kg (as indicated). Tumor volumes were measured twice weekly. X-axis represents the number of days for treatment duration; y-axis represents mean tumor volume (in mm^3)±SEM. CHOP was used as a positive control for this model. Drug-free vehicle is represented by black circles; CHOP combination represented by light squares; Compound 345 3 mg/kg represented by triangles; Compound 345 10 mg/kg represented by dark squares.
FIGS. 19A, 19B, and 19C: Activity of Compound 345 in the c-Myc high DOHH-2 lymphoma cell line. […] GAPDH was used as a loading control. 19B: Antiproliferative activity of Compound 345 (as indicated) following treatment with Compound 345 for 72 hr as assessed by Cell Titer Glo assay. […] Mice were dosed daily PO with vehicle or Compound 345 at 3, 10 mg/kg (as indicated). Tumor volumes were measured twice weekly. X-axis represents the number of days for treatment duration; y-axis represents mean tumor volume (in mm^3)±SEM. CHOP was used as a positive control for this model.
Western blot analysis performed 24 hr post treatment initiation. GAPDH was used as a loading control. GSPT1 DC50 and Dmax as indicated.
Background: In western blotting, separated proteins are transferred to a membrane and probed.

Chain of GSPT1 (P15170 whole entry): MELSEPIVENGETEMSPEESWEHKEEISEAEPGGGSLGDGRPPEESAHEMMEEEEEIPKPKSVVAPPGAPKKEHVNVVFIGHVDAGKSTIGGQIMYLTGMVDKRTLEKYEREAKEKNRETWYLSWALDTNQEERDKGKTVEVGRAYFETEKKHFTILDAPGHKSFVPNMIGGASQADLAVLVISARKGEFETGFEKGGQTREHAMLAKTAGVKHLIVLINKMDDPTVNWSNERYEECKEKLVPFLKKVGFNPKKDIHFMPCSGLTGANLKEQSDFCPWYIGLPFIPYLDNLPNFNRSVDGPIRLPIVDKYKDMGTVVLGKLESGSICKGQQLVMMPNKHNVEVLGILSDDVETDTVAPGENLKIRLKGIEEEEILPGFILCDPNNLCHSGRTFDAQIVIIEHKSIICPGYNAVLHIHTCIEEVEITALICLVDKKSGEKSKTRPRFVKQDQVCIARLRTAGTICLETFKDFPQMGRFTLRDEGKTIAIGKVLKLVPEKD
Chain of GSPT1 (Q96SW2 whole entry): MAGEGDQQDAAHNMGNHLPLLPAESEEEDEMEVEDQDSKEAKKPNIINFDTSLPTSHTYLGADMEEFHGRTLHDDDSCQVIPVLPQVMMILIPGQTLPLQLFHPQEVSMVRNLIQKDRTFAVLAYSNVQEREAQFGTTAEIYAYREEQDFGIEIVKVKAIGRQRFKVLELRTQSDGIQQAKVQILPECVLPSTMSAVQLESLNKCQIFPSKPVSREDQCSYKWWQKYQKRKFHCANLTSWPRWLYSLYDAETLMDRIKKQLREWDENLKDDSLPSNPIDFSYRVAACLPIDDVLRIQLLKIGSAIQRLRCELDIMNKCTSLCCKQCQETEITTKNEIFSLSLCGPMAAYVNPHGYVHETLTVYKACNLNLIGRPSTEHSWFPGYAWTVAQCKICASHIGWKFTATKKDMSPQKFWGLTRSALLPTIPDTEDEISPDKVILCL
Chain of GSPT1 (Q16531 whole entry partner): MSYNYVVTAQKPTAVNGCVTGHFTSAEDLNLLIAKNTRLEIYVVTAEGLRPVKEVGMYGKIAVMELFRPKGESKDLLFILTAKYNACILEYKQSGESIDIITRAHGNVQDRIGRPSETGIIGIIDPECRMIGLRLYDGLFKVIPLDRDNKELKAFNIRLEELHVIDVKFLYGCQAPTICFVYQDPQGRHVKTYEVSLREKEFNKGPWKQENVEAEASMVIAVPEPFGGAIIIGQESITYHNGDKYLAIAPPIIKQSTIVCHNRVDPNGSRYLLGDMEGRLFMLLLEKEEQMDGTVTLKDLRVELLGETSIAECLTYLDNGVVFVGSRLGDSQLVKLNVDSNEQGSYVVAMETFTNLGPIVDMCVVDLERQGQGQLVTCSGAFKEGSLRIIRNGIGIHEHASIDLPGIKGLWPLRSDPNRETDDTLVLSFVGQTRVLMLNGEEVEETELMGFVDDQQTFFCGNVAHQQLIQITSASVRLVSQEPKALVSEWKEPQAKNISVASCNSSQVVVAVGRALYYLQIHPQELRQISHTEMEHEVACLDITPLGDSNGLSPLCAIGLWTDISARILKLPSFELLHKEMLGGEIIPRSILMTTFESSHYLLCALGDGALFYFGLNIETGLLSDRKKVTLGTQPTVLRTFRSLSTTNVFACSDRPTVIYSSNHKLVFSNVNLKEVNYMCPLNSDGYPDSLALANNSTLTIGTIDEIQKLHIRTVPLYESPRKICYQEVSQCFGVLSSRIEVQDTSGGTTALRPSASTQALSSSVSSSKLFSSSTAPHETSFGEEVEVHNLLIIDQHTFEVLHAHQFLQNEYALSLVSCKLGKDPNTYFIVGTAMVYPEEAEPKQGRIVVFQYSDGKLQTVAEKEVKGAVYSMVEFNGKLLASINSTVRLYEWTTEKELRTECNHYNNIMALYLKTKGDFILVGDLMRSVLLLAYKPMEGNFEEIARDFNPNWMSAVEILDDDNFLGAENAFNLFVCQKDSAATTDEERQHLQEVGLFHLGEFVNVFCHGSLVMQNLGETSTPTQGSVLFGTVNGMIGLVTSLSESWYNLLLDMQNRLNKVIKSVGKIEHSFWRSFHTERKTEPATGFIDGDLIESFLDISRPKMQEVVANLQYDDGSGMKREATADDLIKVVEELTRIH

Turning to `O=C1CCC(N2Cc3ccc(COC(=O)Nc4cc(OC(F)(F)F)ccc4F)cc3C2=O)C(=O)N1` (stereo not shown) [Compound 345, (2-(2,6-dioxopiperidin-3-yl)-3-oxoisoindolin-5-yl)methyl(2-fluoro-5-(trifluoromethoxy)phenyl)carbamate], in assay [1], the tumor volume entry was “anti-tumor activity”. In addition, the GSPT1 level entry was “Degradation of GSPT1” at GSPT1 (DOHH-2 lymphoma cell line, 24 hr post treatment); “Degradation of GSPT1” at GSPT1 (MM1S multiple myeloma cell line, 24 hr post treatment); “Induced-degradation of GSPT1” at GSPT1 (NSCLC lines NCI-H1155, ABC-1 (6 hr), NCI-H2023, NCI-H441 (24 hr)); “Degradation of GSPT1” at GSPT1 (WSU-DLCL2 lymphoma cell line, 24 hr post treatment). Moreover, the “GSPT1 level, timecourse” value at GSPT1 (NSCLC lines NCI-H1155 and NCI-H2023) is given as “degradation of GSPT1”; at GSPT1 (SCLC lines NCI-H1836 and NCI-H1876 (L-Myc high)), “degradation of GSPT1”.
